Measured values reported in patent publication US10300451B2, “Method for generating an affinity reagent library” (priority 2013, dated 2019).
Entries after “also recorded” stand apart in the source; their conditions may differ.

How the values were obtained:
αVβ6 = molecular target: T1, αVβ6 (Homo sapiens, UniProt P06756+P18564); test: Inhibition of biotinylated-A20FMDV2 binding to αVβ6 expressing cells; format: cell-based; details: scFv or peptide 0.1 and 1.0 μM; biotinylated A20FMDV2 10 nM
T1 construct: A375puro endogenously express the RGD directed integrins α5β1, αVβ3, αVβ5 and αVβ8; expressed in transfected cells; host or cells: αVβ6-expressing cells; The method paragraph names no line

[1] = system: αVβ6-dependent adhesion of carcinoma cells to immobilised fibronectin; test: Picogreen adhesion assay on fibronectin; format: cell-based, human; details: fibronectin 10 ug/ml
Procedure: All adhesion assays were performed in quadruplicate and repeated at least 2-3 times. In a 96-well plate format, test wells were coated with Fibronectin (10 ug/ml/PBS) and negative control wells were coated with 0.1% BSA (bovine serum albumin)/PBS. After incubation at 37° C. for 1 hour, plates were washed in PBS thwice and blocked with 0.1% BSA/PBS for 30 mins at 37° C. Following a PBS rinse, cells were seeded into the wells, the plate resting on ice to avoid dehydration and to ensure an initial uniform temperature for the experiment. Purified scFv or peptide was added (25 ul) to the wells at the desired concentrations, before adding 1.5×10^4 cells (25 ul) per well. In some experiments, cells (1.5×10^4) were pre-treated with β1 blocking antibody AIIB2 at 10 ug/ml before seeding into test wells. To determine percentage adhesion, standard curves were generated by plating 0-2.5×10^4 cells in separate wells. After incubating plates at 37° C. for 30′ plates were washed twice in 1 mM CaCl2/0.5 mM MgCl2/PBS and transferred into −80° C. for 15 mins. Adherent cells were quantified using a Picogreen kit (Invitrogen) and analysed on a fluorescence reader (FLUOstar Optima, BMG Labtech Ltd, Bucks, UK).

cellular αVβ6 = molecular target: T2, cellular αVβ6 (Homo sapiens, UniProt P06756+P18564); test: Screening for integrin specificity by flow cytometry (A375Pβ6 vs A375Ppuro cells); format: cell-based
T2 construct: A375puro endogenously express the RGD directed integrins α5β1, αVβ3, αVβ5 and αVβ8; expressed in transfected cells; host or cells: A375Pβ6 (αVβ6-positive), with A375Ppuro as the αVβ6-negative control
Procedure: Purified scFv were tested for specificity for αVβ6 by flow cytometry using the isogenic pairs of cell lines, […] and A375Ppuro, which express similar levels of four RGD-binding integrins (αVβ3, αVβ5, αVβ8, α5β1) but only […] express αVβ6. Briefly, cells were detached with trypsin/EDTA, rinsed twice in ice-cold wash buffer (0.1% BSA/DMEM/0.1% NaN3) and 2×10^5 cells re-suspended in 50 μl of wash buffer per sample. In between all incubation steps, all samples were washed twice with wash buffer unless otherwise stated. Cells were incubated on ice for 1 hr with 0.1 or 1 uM purified scFv of peptide, washed twice. For scFv, cells were then incubated for 1 hr on ice with mouse anti-Myc antibody (clone 9E10, Santa Cruz) at 1:100. After washing, bound antibody was detected with anti-mouse IgG-Alexaflour 488 (1:250 for 1 h; Molecular Probes), on ice. Bound VH-CDR3 derived peptide were detected by rabbit anti-biotin IgG (1:200), followed by anti-rabbit IgG-Alexafluor 488 (1:250; Molecular Probes). Cells were analysed using the FACSCalibur (Beckton Dickinson). Cell expression of αVβ6 integrin was detected with mouse monoclonal antibody (clone 10D5, 10 μg/ml; Millipore) and non-specific (control) binding with non-immune class matched IgG.

αVβ6-expressing cells = test: Internalisation assay (confocal microscopy); format: cell-based, human; details: for intracellular localisation after incubation: 37° C. for 45 minutes, αVβ6-expressing cells; for cellular internalisation in αVβ6-expressing cells: 37° C., 0 and 45 minutes
Procedure: In 24-well culture plates, 2×10^4 cells (DX3puro, DX3β6 or VB6) were seeded onto 13 mm diameter glass coverslips and allowed to incubate overnight at 37° C. in growth medium. Cells were washed thwice in serum free medium (SFM) and then scFv (4 uM) or biotinylated-CDR3-peptide (100 nM) diluted in SFM added on ice for 10 mins. After two ice-cold washes and a further 10 mins on ice with mouse anti-biotin antibody (10 ug/ml) pre-warmed media containing 10% FCS was added to the cells and incubated at 37° C. At 10 min intervals between 0-60 mins, cells were fixed in 2% HCHO in PBS and permeabilised with 0.1% TritonX-100 (PBS) for 3 mins. scFv was detected with mouse anti c-myc (1:100 dilution, clone 9E10; 30 mins, ambient temperature) and followed by while peptides were detected by rabbit anti-biotin IgG (1:200). Both peptide and scFv detected with anti-mouse Alexa488 for 30′. Nuclei were counter-labelled with 4′,6-diamidino-2-phenylindole (DAPI), coverslips mounted with Mowiol and samples examined by confocal microscopy (Zeiss LSM510, Welwyn Garden City).

T1 sequence (P06756 31-889 limits assumed): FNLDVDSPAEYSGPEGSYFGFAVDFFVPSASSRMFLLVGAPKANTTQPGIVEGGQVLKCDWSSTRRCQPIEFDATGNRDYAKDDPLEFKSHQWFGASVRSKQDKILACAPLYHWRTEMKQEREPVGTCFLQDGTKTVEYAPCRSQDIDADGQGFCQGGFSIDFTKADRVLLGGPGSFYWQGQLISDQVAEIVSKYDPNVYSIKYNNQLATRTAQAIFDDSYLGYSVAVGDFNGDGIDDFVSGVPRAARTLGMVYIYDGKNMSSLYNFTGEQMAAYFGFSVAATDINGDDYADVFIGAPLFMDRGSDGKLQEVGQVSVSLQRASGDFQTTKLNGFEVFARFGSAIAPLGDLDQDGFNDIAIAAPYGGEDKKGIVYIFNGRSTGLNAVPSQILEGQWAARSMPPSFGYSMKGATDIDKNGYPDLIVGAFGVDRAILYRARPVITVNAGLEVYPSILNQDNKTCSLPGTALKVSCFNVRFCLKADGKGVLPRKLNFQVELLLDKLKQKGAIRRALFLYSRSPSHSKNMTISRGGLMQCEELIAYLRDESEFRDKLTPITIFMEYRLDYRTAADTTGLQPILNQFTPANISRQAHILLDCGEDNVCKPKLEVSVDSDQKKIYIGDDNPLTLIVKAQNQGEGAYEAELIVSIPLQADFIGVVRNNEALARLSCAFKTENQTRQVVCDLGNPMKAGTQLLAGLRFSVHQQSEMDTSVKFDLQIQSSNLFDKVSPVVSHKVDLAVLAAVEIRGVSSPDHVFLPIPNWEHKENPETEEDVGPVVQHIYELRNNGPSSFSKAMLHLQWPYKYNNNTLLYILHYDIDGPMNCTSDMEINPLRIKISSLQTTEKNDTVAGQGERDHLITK
T1 sequence (P06756 891-1048 limits assumed): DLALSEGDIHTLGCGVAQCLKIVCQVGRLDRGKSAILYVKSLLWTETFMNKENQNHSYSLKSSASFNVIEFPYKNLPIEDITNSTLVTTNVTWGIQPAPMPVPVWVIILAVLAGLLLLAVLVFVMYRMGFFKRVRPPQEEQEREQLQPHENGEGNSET
T1 sequence (P18564 22-788): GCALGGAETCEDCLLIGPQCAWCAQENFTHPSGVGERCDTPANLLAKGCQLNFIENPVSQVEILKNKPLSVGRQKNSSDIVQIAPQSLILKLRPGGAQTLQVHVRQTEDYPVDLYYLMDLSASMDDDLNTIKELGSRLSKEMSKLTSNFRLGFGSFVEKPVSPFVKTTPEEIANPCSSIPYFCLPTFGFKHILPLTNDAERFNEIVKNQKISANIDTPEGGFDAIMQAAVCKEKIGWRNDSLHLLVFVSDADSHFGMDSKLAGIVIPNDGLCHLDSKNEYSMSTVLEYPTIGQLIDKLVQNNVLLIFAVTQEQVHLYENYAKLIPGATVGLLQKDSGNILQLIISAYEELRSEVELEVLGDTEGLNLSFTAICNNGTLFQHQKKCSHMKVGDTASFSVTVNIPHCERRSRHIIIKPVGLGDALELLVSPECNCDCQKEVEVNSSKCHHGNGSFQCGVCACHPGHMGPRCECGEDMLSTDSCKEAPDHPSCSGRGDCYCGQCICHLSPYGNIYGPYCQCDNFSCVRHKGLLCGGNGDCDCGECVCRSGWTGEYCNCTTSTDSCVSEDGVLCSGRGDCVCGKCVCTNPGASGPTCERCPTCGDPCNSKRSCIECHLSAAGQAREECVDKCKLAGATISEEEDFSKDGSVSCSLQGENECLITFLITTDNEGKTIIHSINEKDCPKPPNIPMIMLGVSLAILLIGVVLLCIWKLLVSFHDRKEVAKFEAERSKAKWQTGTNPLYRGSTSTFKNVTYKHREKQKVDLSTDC
T2 sequence (P06756 31-889 limits assumed): as the sequence (P06756 31-889 limits assumed) above
T2 sequence (P06756 891-1048 limits assumed): as the sequence (P06756 891-1048 limits assumed) above
T2 sequence (P18564 22-788): as the sequence (P18564 22-788) above

Row | Sequence | inhibition of binding of A20FMDV2 peptide to cellular αvβ6 (αVβ6) | inhibition of αVβ6-dependent adhesion of carcinoma cells to immobilised fibronectin [1] | binding to αVβ6-expressing cells (flow cytometry) (cellular αVβ6) | intracellular localisation after incubation (αVβ6-expressing cells) | cellular internalisation in αVβ6-expressing cells (αVβ6-expressing cells) | cellular internalisation in αVβ6-negative cells (αVβ6-expressing cells)
1 | EPRGDLRTLAAREKRNFNETLARLQEKGI (Peptide sequence comprising RGD motif followed by a C-terminal alpha-helix or 3(10)-helix) [D25p] | dose-dependent inhibition | inhibited; also recorded: significant concentration-dependent inhibition | αVβ6-specific binding | nuclear localisation was not seen | Internalisation | No peptide internalization was observed
2 | QPRGDLRELAARSEAQLQEKGI (Peptide sequence comprising RGD motif followed by a C-terminal alpha-helix or 3(10)-helix) [D34p] | dose-dependent inhibition | inhibited; also recorded: significant concentration-dependent inhibition | αVβ6-specific binding | nuclear localisation was not seen | Internalisation | No peptide internalization was observed
